In the assay the test system is 429239-143-T-J1-PDC complex spheroid viability. The assay can be described thus: Anticancer human tumor 429239-143-T-J1-PDC patient-derived small cell lung carcinoma cell line growth inhibition [POLQ]. Particulars: for viability, T/C: stronger effect = lower value. As for the experimental part:
Multicellular complex tumor spheroid response to Polymerase (POL) inhibitors (novobiocin, ART-558, RP6685) in combination with a variety of drugs and investigational agents in selected tumor cell lines
The POL inhibitors (novobiocin, ART-558, and RP6685) were evaluated both individually and in combination with standard of care and investigational anticancer small molecules within a complex spheroid model of solid tumors. . Complex spheroids include a stromal component modeled by human endothelial cells (HUVEC) and fibroblasts modeled by human mesenchymal stem cells (MSCs). The concentration ranges selected for each drug and investigational agent were based upon clinically achievable concentrations if the clinical Cmax of the agent was known.
Compounds. The drugs and investigational agents: novobiocin (NSC847541), ART-558 (NSC835418), RP-6685 (NSC848927), peposertib (NSC802822), ceralasertib (NSC780249), elimusertib (NSC800525), camonsertib (NSC841442), AZD-1390 (NSC803789), olaparib (NSC753686), talazoparib (NSC767125), rucaparib (NSC756644), sotorasib (NSC818433), MRTX-1133 (NSC836407), SN-38 (NSC673596), topotecan (NSC609699), epotoside (NSC141540), doxorubicin (NSC123127), gemcitabine (NSC613327), 5-fluorouracil (NSC19893), paclitaxel (NSC125973), vemurafenib (NSC761431), MSA-2 (NSC828583), SN-011 (NSC837082), adavosertib (NSC754352), prexasertib (NSC758257), carboplatin (NSC241240) and oxaliplatin (NSC266046), were obtained from the National Cancer Institute (NCI) Developmental Therapeutics Program Chemical Repository (21). The FDA-approved anticancer drug set is available from the Developmental Therapeutics Program at https://dtp.cancer.gov/organization/dscb/obtaining/. […] The stock solutions were prepared in dimethyl sulfoxide (DMSO, Sigma-Aldrich, St. Louis, MO, cat. D2650), except for the platinum compounds which were prepared in saline (Quality Biological, Gaithersburg, MD, cat. 114-055-101), at 800-fold the tested concentration and stored at -70 degrees C prior to their use. All drugs and investigational agents were tested over a range starting from a high concentration at or near the clinical Cmax and decreasing in half-log increments. If the clinical Cmax for an agent had not been determined, the highest concentration tested was 10 microM, except for SN-38, which was tested at a high concentration of 1 microM.
Cell Culture. All cells were maintained in an incubator at 37 degrees C and 5% CO2 with 95% humidity. The PDC lines were cultured according to standard operating procedures established by the NCI PDMR (https://pdmr.cancer.gov). Table 3 of the manuscript, lists the cell lines along with the number of the three cell types plated to form the mct-spheroids and media for tumor cell growth. After thawing, all PDC lines, except 997537-175-T-J1-PDC and 415267-285-R-J2-PDC, were cultured in Matrigel-coated flasks prepared with a working solution of 1X Ham's F-12 nutrient mix, without supplementation (Thermo Fisher Scientific, cat. 11765054), 100 U/mL penicillin-streptomycin (Thermo Fisher Scientific, cat. 15140122), and 2.5% Matrigel (Corning Inc., Corning, NY, cat. 354248) for the first three passages. The two PDC lines 997537-175-T-J1-PDC and 415267-285-R-J2-PDC were cultured on uncoated flasks. The 857933-349-R-J2-PDC line was cultured in 6C/Colon 1B media containing advanced DMEM/F-12 (Thermo Fisher Scientific, cat. 12634028), 10 mM HEPES (Thermo Fisher Scientific, cat. 15630080), 1X GlutaMAX supplement (Thermo Fisher Scientific, cat. 35050061), 0.1 mg/mL primocin (InvivoGen, San Diego, CA, cat. ant-pm-2), 10% defined fetal bovine serum, heat inactivated (HyClone Laboratories Inc., Logan, UT, cat. SH30070.03HI), 50% L-WRN conditioned media (ATCC, cat. CRL-3276), 1.25 mM N-Acetyl-L-cysteine (Sigma-Aldrich, cat. A9165), 10 mM nicotinamide (Sigma-Aldrich, cat. N0636), 1X B-27 supplement (Thermo Fisher Scientific, cat. 17504044), 1X N-2 supplement (Thermo Fisher Scientific, cat. […]

Where “and” joins values, the source holds several entries; their conditions need not be identical. Equal entries are not always repeated.
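Note: luminescence signal used as surrogate measure of viable cells; spheroids exposed to compounds for seven days before readout.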
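Throughout, for viability, T/C: 100% = DMSO vehicle control viability as luminescence relative to vehicle.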

`C#Cc1c(F)ccc2cc(O)cc(-c3ncc4c(N5CC6CCC(C5)N6)nc(OCC56CCCN5CC(F)C6)nc4c3F)c12` (stereo unspecified): the viability, T/C (compound 0.0316 µM) was 92.4% and 94.3% and 101%; the viability, T/C (compound 0.1 µM) was 91.3% and 103% and 102%; the viability, T/C (compound 0.316 µM) is 114% and 102% and 96%; the viability, T/C (compound 1 µM) is 99% and 112% and 102%; the viability, T/C (compound 3.16 µM) is 102% and 97.4% and 98.6%; the viability, T/C (compound 10 µM) is 84.1% and 91.3% and 103%. The IC50 (curve of compound) was above 10 µM.
Regarding `C=CC(=O)N1CCN(c2nc(=O)n(-c3c(C)ccnc3C(C)C)c3nc(-c4c(O)cccc4F)c(F)cc23)C(C)C1` (stereo unspecified), the viability, T/C runs as follows: (compound 0.0316 µM) 96.4% and 97.7% and 104%; (compound 0.1 µM) 100% and 103% and 90.4%; (compound 0.316 µM) 98.7% and 103% and 101%; (compound 1 µM) 105% and 101% and 102%; (compound 3.16 µM) 114% and 103% and 113%; (compound 10 µM) 112% and 102% and 108%. Also, under “curve of compound”, the IC50 was above 10 µM.
On to `CC1COCCN1c1cc(C2(O)CC3CCC(C2)O3)c2cnn(-c3ccn[nH]3)c2n1` (stereo unspecified), for which the viability, T/C (compound 0.0316 µM) was 67.2% and 61.1% and 90.8%; the viability, T/C (compound 0.1 µM) is 45.3% and 34.4% and 78.8%; the viability, T/C (compound 0.316 µM) was 17.6% and 17% and 52.5%; the viability, T/C (compound 1 µM) is 10.2% and 7.95% and 6.96%; the viability, T/C (compound 3.16 µM) was 9.58% and 7.43% and 2.96%; the viability, T/C (compound 10 µM) was 4.72% and 5.39% and 2.25%. Moreover, the IC50 (curve of compound) was 0.0776 µM and 0.051 µM and 0.324 µM.
Turning to `CCc1cc2c(N3CCc4c(cc(Cn5ccnc5)cc4-c4cn(C)nc4C(F)(F)F)C3=O)cc(C)nc2c(OC)n1`, the viability, T/C runs as follows: (compound 0.0316 µM) 97.3% and 95.1% and 89.2%; (compound 0.1 µM) 77.4% and 91.2% and 89.8%; (compound 0.316 µM) 63.9% and 85.3% and 90%; (compound 1 µM) 48% and 81.4% and 78.2%; (compound 3.16 µM) 42.7% and 76.8% and 69.8%; (compound 10 µM) 38.6% and 45.6% and 43.8%. Further, the IC50 (curve of compound) was 0.977 µM and 8.65 µM and 7.62 µM.
As for `CCc1cc2c(N3CCc4c(cc(Cn5ccnc5)cc4-c4cn(C)nc4C(F)(F)F)C3=O)ccnc2c(OC)n1`, the viability, T/C was 91% and 106% and 101% (compound 0.0316 µM); 85.1% and 102% and 98.5% (compound 0.1 µM); 75.5% and 95.9% and 87.7% (compound 0.316 µM); 61.2% and 86.6% and 91.9% (compound 1 µM); 55.3% and 83.3% and 73.6% (compound 3.16 µM); 32.2% and 55.7% and 54.7% (compound 10 µM). The IC50 (curve of compound) was 3.3 µM and > 10 µM.
As to `COc1cc2cc(C(=O)CCC(=O)O)sc2cc1OC`, the viability, T/C is 92.3% and 91.8% and 112% (compound 0.0316 µM); 105% and 102% and 92.5% (compound 0.1 µM); 94.3% and 97.6% and 97.8% (compound 0.316 µM); 108% and 109% and 97.7% (compound 1 µM); 108% and 107% and 97.8% (compound 3.16 µM); 97.3% and 104% and 87.3% (compound 10 µM). Also, the IC50 (curve of compound) is above 10 µM.
Turning to `O=C(Nc1ccc(O)c(NS(=O)(=O)c2ccc(F)cc2)c1)c1ccc(-c2ccccc2)cc1`, the viability, T/C by setting is: (compound 0.0316 µM) 100% and 92.5% and 95.2%; (compound 0.1 µM) 106% and 123% and 96.5%; (compound 0.316 µM) 105% and 106% and 107%; (compound 1 µM) 103% and 107% and 99.5%; (compound 3.16 µM) 113% and 122% and 114%; (compound 10 µM) 103% and 119% and 63.5%. Moreover, the IC50 (curve of compound) is above 10 µM.
As for `Nc1ccn(C2OC(CO)C(O)C2(F)F)c(=O)n1` (stereo unspecified) + COC1C(OC(N)=O)C(O)C(Oc2ccc3c(O)c(NC(=O)c4ccc(O)c(CC=C(C)C)c4)c(=O)oc3c2C)OC1(C)C, the IC50 reads like this: (curve of first compound, second compound 0.0316 µM) below 0.0316 µM; (curve of first compound, second compound 0.1 µM) below 0.0316 µM; (curve of first compound, second compound 0.316 µM) below 0.0316 µM; (curve of first compound, second compound 1 µM) below 0.0316 µM; (curve of first compound, second compound 3.16 µM) below 0.0316 µM; (curve of first compound, second compound 10 µM) below 0.0316 µM. Moreover, the viability, T/C is, setting by setting: (second compound 0.0316 µM, first compound 0.0316 µM) 23.4%; (second compound 0.0316 µM, first compound 0.1 µM) 19.2%; (second compound 0.0316 µM, first compound 0.316 µM) 19.7%; (second compound 0.0316 µM, first compound 1 µM) 16.5%; (second compound 0.0316 µM, first compound 3.16 µM) 17.5%; (second compound 0.0316 µM, first compound 10 µM) 16.4%. For the same molecule, the viability, T/C is 15.1% (second compound 0.1 µM, first compound 0.0316 µM); 17.8% (second compound 0.1 µM, first compound 0.1 µM); 18.2% (second compound 0.1 µM, first compound 0.316 µM); 17.4% (second compound 0.1 µM, first compound 1 µM); 17.3% (second compound 0.1 µM, first compound 3.16 µM); 16.1% (second compound 0.1 µM, first compound 10 µM). Moreover, the viability, T/C (second compound 0.316 µM, first compound 0.0316 µM) is 22.2%; the viability, T/C (second compound 0.316 µM, first compound 0.1 µM) is 17.1%; the viability, T/C (second compound 0.316 µM, first compound 0.316 µM) is 16.7%; the viability, T/C (second compound 0.316 µM, first compound 1 µM) was 18.4%; the viability, T/C (second compound 0.316 µM, first compound 3.16 µM) is 16.9%; the viability, T/C (second compound 0.316 µM, first compound 10 µM) was 14.8%. Further, the viability, T/C by setting is: (second compound 1 µM, first compound 0.0316 µM) 17.4%; (second compound 1 µM, first compound 0.1 µM) 17.4%; (second compound 1 µM, first compound 0.316 µM) 17.8%; (second compound 1 µM, first compound 1 µM) 16.1%; (second compound 1 µM, first compound 3.16 µM) 18.4%; (second compound 1 µM, first compound 10 µM) 21%. Moreover, the viability, T/C (second compound 3.16 µM, first compound 0.0316 µM) was 14.9%; the viability, T/C (second compound 3.16 µM, first compound 0.1 µM) was 13.9%; the viability, T/C (second compound 3.16 µM, first compound 0.316 µM) was 19.1%; the viability, T/C (second compound 3.16 µM, first compound 1 µM) is 12.5%; the viability, T/C (second compound 3.16 µM, first compound 3.16 µM) is 16.3%; the viability, T/C (second compound 3.16 µM, first compound 10 µM) is 13.5%. Also, the viability, T/C was 14.5% (second compound 10 µM, first compound 0.0316 µM); 16.9% (second compound 10 µM, first compound 0.1 µM); 17.5% (second compound 10 µM, first compound 0.316 µM); 20.4% (second compound 10 µM, first compound 1 µM); 17% (second compound 10 µM, first compound 3.16 µM); 17.1% (second compound 10 µM, first compound 10 µM).

By viability, T/C is commonly meant the ratio of treated to control. What is called IC50 is the point on the concentration scale where inhibition reaches its midpoint.

Source of the values: PubChem BioAssay AID1963845 (Molecular Pharmacology Branch, DTP, NCI, 2024).
